Laboratory results: patent US20170360013A1, “ANIMAL MODEL FOR DRY EYE AND METHODS OF USE OF SUCH ANIMALS” (REGENERON PHARMACEUTICALS, INC., priority 2014, published 2017)

What was measured:
C57BL/6 mice [1] = assay: Flow cytometry of extraorbital lacrimal glands (CD45+ immune cell infiltration); assay type: in vivo, mouse; details: after 4 weeks of treatment; relative to controls
Protocol: (§1) Dry eye model induction: 27 adult, male C57BL/6 mice were randomized to naïve (untreated), sham (receiving surgery equivalent to surgery for implantation of pump, but without actual implantation of pump and without scopolamine or BAC treatment), benzalkonium chloride (BAC), scopolamine (Scop) or BAC plus Scop groups.
(§2) Implantation of scopolamine pump. For Scop group, mice were subcutaneously implanted with an osmotic pump filled with Scop (2 mg/20 g body weight/day) lasting for 4 weeks. Mice were anesthetized with ketamine (120 mg/kg, IP) and xylazine (5 mg/kg, IP). Using aseptic microsurgical technique and an operating microscope, a mini-osmotic pump was placed beneath the back skin, then the skin was sutured, and erythromycin ophthalmic ointment was applied to the wound to prevent infection.
(§3) Benzalkonium chloride treatment. For BAC treatment, 1 μl of 0.1-0.2% BAC was topically administrated on the right eye ocular surface, twice daily, 2 days per week, for four weeks.
Quantification of corneal angiogenesis, lymphangiogenesis and lacrimal gland infiltration. On day 28 after induction of dry eye, under deep ketamine (120 mg/kg, IP) and xylazine (5 mg/kg, IP) anesthesia, eyeballs were collected in 4% paraformaldehyde (PFA) for corneal angiogenesis and lymphangiogenesis studies. […]
Flow cytometry. […] Data was analyzed by FlowJo (Tree Star, Ashland, Oreg.).

C57BL/6 mice [2] = assay: Tear production measurement (phenol red thread) in dry eye model induction; assay type: in vivo, mouse; details: over four weeks of administration; Scop 2 mg/20 g body weight/day by s.c. osmotic pump; BAC 1 μl of 0.1-0.2% topical, twice daily, 2 days per week; relative to controls or BAC alone; p<0.001
Protocol: as §1, §2, §3
Tear production measurement and corneal fluorescein staining score. Tear production and corneal fluorescein staining were performed once per week, on day 7, 14, 21, and 28. […] Five minutes after application, corneal fluorescein staining was scored under a microscope using the National Eye Institute (NEI) scoring standards.

Molecule | percent of CD45+ cells in extraorbital lacrimal glands (C57BL/6 mice [1]) | tear production (C57BL/6 mice [2])
benzalkonium chloride [BAC] | increased | –
CN1[C@@H]2C[C@@H](OC(=O)[C@H](CO)c3ccccc3)C[C@H]1[C@@H]1O[C@@H]12 [Scop, scopolamine] | increased | significantly decreases
